Experimental data reported in patent US4057644A, “Active derivatives of methylamine in therapeutic compositions and methods of use” (priority 1976, dated 1977).
Where two headings read alike, the source gives them in different places.

Tests used:
[1] = J. Amer. Chem. Soc., 71, 3352 (1949); cited from earlier work
[2] = system: catalepsy; test: Inhibition of prochlorperazine-induced catalepsy (crossing of homolateral paws); type: in vivo; settings: Rattus norvegicus, po, 3 h, read-out: dose giving complete inhibition of the catalepsy
Excerpt: […]. These trails involved catalepsy as evidenced by the crossing of the animal's homolateral paws.

[3] = Anti-cholinergic (cholinolytic) activity
[4] = system: reserpine-induced catatonia; test: Suppression of reserpine-induced catatonia (curative treatment); type: in vivo, rat (male, OFA strain); settings: 2.5 and 5 mg/kg oral, versus amantadine 80 mg/kg
Experimental: Batches of 5 male rats of the OFA strain, weighing 150 to 200 g were given 5 mg/kg of reserpine by intraperitoneal route. One hour and 45 minutes later, namely when the animals were in state of catatonia, an aqueous dose of the compound to be studied was administered by oral route to all the animals with the exception of the control group.
The progress of the catatonia was then noted following the scale used in the tests described hereabove.
The maximum score was thus 5 per batch which means that all the animals of the batch were considered to be still in a state of catatonia.

[5] = system: neuroleptic-induced catatonia (prochlorperazine); test: Suppression of neuroleptic-induced catatonia (curative treatment); type: in vivo, rat (male, OFA strain); settings: 5 mg/kg, versus amantadine 80 mg/kg
Experimental: Fifty-five minutes later, an oral dose in aqueous solution of the compound to be studied was administered to all the animals with the exception of the control group. The progress of the catatonia was noted following the same scale as that used in the tests described above.

[6] = system: reserpine-induced catatonia; test: Inhibition of reserpine-induced catatonia; type: in vivo, rat (male, OFA strain); settings: rat
Experimental: Ater sufficient doses of reserpine have been administered to the rat, a series of symptoms occur, more particularly ptosis, catatonia and a drop in central temperature. These symptoms are caused by the depletion of the intrangranular reserve pool of biogenetic amines at the synaptic terminals.
An oral dose of the compound to be studied in aqueous solution was administered to batches of 10 male rats of the OFA strain weighing about 150 to 200 g. Thirty minutes later a dose of 5 mg/kg of reserpine was given by intraperitoneal route. Three hours after the injection of reserpine, the animals were suspended by the four paws to a horizontally stretched wire fixed at 15 cm from the ground. The catatonic animals were those which maintained the position so given for at least 30 seconds. […] The maximum score was therefore 10 per batch. An identical trial was undertaken with control animals which received reserpine but none of the compounds being studied.

[7] = system: neuroleptic-induced catatonia (prochlorperazine); test: Inhibition of neuroleptic-induced catatonia; type: in vivo, rat (male, OFA strain); settings: rat, oral; versus amantadine
Experimental: The blocking of dopaminergic receptors by neuroleptics in the extra-pyramidal system induces catatonia in the rat. Catatonia is differentiated from sedative properties by means of the test used hereabove for reserpine-induced catatonia. The same system of scoring was also employed in the present case.
An oral dose of the compound to be studied in aqueous solution was administered to batches of 10 male rats of the OFA strain weighing about 150 to 200 g.
Three hours after the injection of this latter compound, catatonia was measured. An identical trial was also carried out with control animals which received prochlorperazine but none of the compounds under study.

[8] = J. Amer. Chem. Soc., 71, 3352 (1949); cited from earlier work; remark: listed apart in the source
[9] = system: isolated duodenum of the rat; test: MAGNUS test, inhibition of acetylcholine spasm in vitro (cholinolytic/spasmolytic)
Excerpt: This test consists in determining the dose of acetylcholine which, when added to the bath, provokes spasm of the isolated duodenum of the rat. The next step consists in determining the dose of the compound under study which, when added to the bath 30 seconds before the acetylcholine, reduces the spasm.

[10] = system: tremorine-induced cholinergic effects; test: Anti-tremorine test; type: in vivo, mice (male, OF1 strain); design: key to central cholinergic effects score (normal and provoked tremor): 0: no action; 1: slight action; 2: average action; 3: strong action; 4: very strong action
Experimental: When injected into mice, tremorine produces peripheral effects i.e. weeping, sweating, salivation and diarrhoea and central effects i.e. tremor and akinesia. Such effects are due to an increase in the amount of intracerebral acetylcholine and serotonine.
Male mice of the OF1 strain weighing about 22 g were divided into batches of 10. […] Thirty minutes later a dose of 10 mg/kg of tremorine was injected by intraperitoneal route and, at different times after this injection, note was taken of the cholinergic effects on each animal in accordance with the following scale: […]

[11] = Spasmolytic activity in vivo; settings: at doses well below the toxic dose
[12] = system: norepinephrine effects on arterial pressure and nictitating membrane; test: Influence on peripheral noradrenergic phenomena (arterial pressure, nictitating membrane); settings: cat; for Contractile reaction of the nictitating membrane with electric stimulation / Contractile reaction of the nictitating membrane without electric stimulation / Increase in arterial pressure after injection of norepinephrine: i.v.
Experimental: A cat, anaesthetized with pentobarbital, received a sufficient dose of norepinephrine to increase arterial pressure but not sufficient to cause contraction of the nictitating membrane. Arterial pressure was measured at the carotid immediately after administration of the dose of norepinephrine.

In the case of `CCCC(N)(CCC)CCC` [Compound 1], the “spasmolytic activity versus the corresponding trialkylethylamines” value [1] is given as “less spasmolytic”, the ED100 [2] is given as 5 mg/kg and the “anti-cholinergic (cholinolytic) activity” value [3] is given as “devoid of anti-cholinergic activity”. For the same molecule, the “rapidity of suppression of reserpine-induced catatonia” value [4] was “more rapidly”, the “rapidity of action against neuroleptic-induced catatonia” value [5] was “more rapidly” and the “degree of activity (pharmacological trials)” value ([6]; in vivo) was “marked degree of activity”. For the same molecule, the “dose of equal activity compared with amantadine (reserpine-induced catatonia)” value ([6]; oral, versus amantadine) was “twenty times inferior”, the “activity compared with amantadine (neuroleptic-induced catatonia)” value [7] was “twenty times more active” and the “toxicity versus the corresponding trialkylethylamines” value [8] was “more toxic”. The “spasmolytic / cholinolytic activity in vitro” value [9] was “virtually non-existent”, the “spasmolytic / cholinolytic activity in vitro” value ([9]; listed as tri-n-propylmethylamine) was “very weak, in fact practically non-existent” and the “central cholinergic effects score (normal and provoked tremor)” value ([10]; 5 mg/kg oral, 20, 30 and 40 minutes after tremorine, printed as identical results) was 4. For the same molecule, the antitremorine properties ([10]; mice, oral) was “devoid of antitremorine properties”, the “spasmolytic activity in vivo” value [11] was “non-existent” and the “potentiation of endogenous norepinephrine” value [12] was “does not potentiate”. For the same molecule, the “potentiation of exogenous norepinephrine / peripheral adrenergic effects” value [12] was “does not potentiate”, the “Contractile reaction of the nictitating membrane with electric stimulation” value (“Contractile reaction … with electric stimulation” for short) ([12]; cumulative dose 0.1 mg/kg) was 15 mm and the “Contractile reaction of the nictitating membrane without electric stimulation” value ([12]; cumulative dose 0.1 mg/kg) was 0 mm. For the same molecule, the “Increase in arterial pressure after injection of norepinephrine” value (shortened to “Increase in arterial pressure”) ([12]; cumulative dose 0.1 mg/kg) was 18 mm Hg, the “Contractile reaction … with electric stimulation” value ([12]; cumulative dose 1 mg/kg) was 16 mm and the “Contractile reaction of the nictitating membrane without electric stimulation” value ([12]; cumulative dose 1 mg/kg) was 0 mm. The “Increase in arterial pressure” value ([12]; cumulative dose 1 mg/kg) was 25 mm Hg, the “Contractile reaction … with electric stimulation” value ([12]; cumulative dose 3 mg/kg) was 17 mm and the “Contractile reaction of the nictitating membrane without electric stimulation” value ([12]; cumulative dose 3 mg/kg) was 0 mm. For the same molecule, the “Increase in arterial pressure” value ([12]; cumulative dose 3 mg/kg) was 29 mm Hg, the “Contractile reaction … with electric stimulation” value ([12]; cumulative dose 5 mg/kg) was 16 mm and the “Contractile reaction of the nictitating membrane without electric stimulation” value ([12]; cumulative dose 5 mg/kg) was 0 mm. The “Increase in arterial pressure” value ([12]; cumulative dose 5 mg/kg) was 25 mm Hg, the “Contractile reaction … with electric stimulation” value ([12]; cumulative dose 10 mg/kg) was 12 mm and the “Contractile reaction of the nictitating membrane without electric stimulation” value ([12]; cumulative dose 10 mg/kg) was 0 mm. The “Increase in arterial pressure” value ([12]; cumulative dose 10 mg/kg) was 22 mm Hg and the “potentiation of exogenous norepinephrine / peripheral adrenergic effects” value ([12]; listed as preferred compound of the invention) was “does not potentiate the peripheral effects of norepinephrine”.
